Laboratory results from ChEMBL document CHEMBL1125650, “Relationships between the structure of taxol analogues and their antimitotic activity” (J Med Chem, 1991).
Values after ≈ are worked out from the molar mass of the structure shown.

How the values were obtained:
P388 = assay: The concentration required to 50% inhibition of the P388 leukemic cell proliferation; assay type: functional, cell-based; settings: Mus musculus
[1] = Ratio of the concentration of compound leading to a 50% inhibition of the rate of pig brain microtubule disassembly to that of compound 13a was determined; assay type: functional
Sus scrofa = species: Sus scrofa; assay: Ratio of the concentration leading to a 50% inhibition of the rate of pig brain microtubule disassembly to that of taxol (0.4 uM) was determined; assay type: functional
[2] = Cytotoxicity was measured as ratio of its IC50 value to that of compound 13a; assay type: functional

With `CC(=O)O[C@H]1C(=O)[C@@]2(C)[C@H]([C@H](OC(=O)c3ccccc3)[C@]3(O)C[C@H](OC(=O)[C@H](O)[C@@H](NC(=O)OC(C)(C)C)c4ccccc4)C(C)=C1C3(C)C)[C@]1(OC(C)=O)CO[C@@H]1C[C@@H]2O` the IC50 (P388) was 0.17 µg/mL (≈ 0.2 µM), the Ratio [1] was 1 and the Ratio (Sus scrofa) was 0.5. The Ratio [2] was 1.3.
For `CC(=O)O[C@@]12CO[C@@H]1C[C@H](O)[C@@]1(C)C(=O)[C@H](O)C3=C(C)[C@@H](OC(=O)C(NC(=O)OC(C)(C)C)C(O)c4ccccc4)C[C@@](O)([C@@H](OC(=O)c4ccccc4)[C@H]21)C3(C)C` (stereo not given in full), the IC50 (P388) was 4 µg/mL (≈ 4.95 µM), the Ratio [1] was 20 and the Ratio (Sus scrofa) was 10. For the same molecule, the Ratio [2] was 31.
With `CC(=O)O[C@@]12CO[C@@H]1C[C@H](OC(=O)C(N)Cc1ccccc1)[C@@]1(C)C(=O)[C@H](O)C3=C(C)[C@@H](OC(=O)C(O)C(NC(=O)OC(C)(C)C)c4ccccc4)C[C@@](O)([C@@H](OC(=O)c4ccccc4)[C@H]21)C3(C)C` (stereo not given in full) the IC50 (P388) was 0.12 µg/mL (≈ 0.126 µM), the Ratio [1] was 2 and the Ratio (Sus scrofa) was 1. It also gave a Ratio [2] of 1.
With `CC(=O)O[C@@]12CO[C@@H]1C[C@H](O)[C@@]1(C)C(=O)[C@H](O)C3=C(C)[C@@H](OC(=O)[C@@H](O)[C@H](NC(=O)OC(C)(C)C)c4ccccc4)C[C@@](O)([C@@H](OC(=O)c4ccccc4)[C@H]21)C3(C)C` the IC50 (P388) was over 10 µg/mL, the Ratio [1] was 60 and the Ratio (Sus scrofa) was 30. For the same molecule, the Ratio [2] was over 77.
Work on `CC(=O)O[C@H]1C(=O)[C@@]2(C)[C@H]([C@H](OC(=O)c3ccccc3)[C@]3(O)C[C@H](OC(=O)[C@@H](O)[C@H](NC(=O)c4ccccc4)c4ccccc4)C(C)=C1C3(C)C)[C@]1(OC(C)=O)CO[C@@H]1C[C@@H]2O` yielded an IC50 (P388) of 7 µg/mL (≈ 8.2 µM), a Ratio [1] of 9 and a Ratio (Sus scrofa) of 4.5. The Ratio [2] was 54.
With `CC(=O)O[C@H]1C(=O)[C@@]2(C)[C@H]([C@H](OC(=O)c3ccccc3)[C@]3(O)C[C@H](OC(=O)[C@H](O)[C@@H](NC(=O)c4ccccc4)c4ccccc4)C(C)=C1C3(C)C)[C@]1(OC(C)=O)CO[C@@H]1C[C@@H]2O` [PACLITAXEL] the IC50 (P388) was 0.27 µg/mL (≈ 0.316 µM) and the Ratio [1] was 2.
Work on `CC(=O)O[C@H]1C(=O)[C@@]2(C)[C@H]([C@H](OC(=O)c3ccccc3)[C@]3(O)C[C@H](OC(=O)[C@H](NC(=O)c4ccccc4)[C@@H](O)c4ccccc4)C(C)=C1C3(C)C)[C@]1(OC(C)=O)CO[C@@H]1C[C@@H]2O` yielded an IC50 (P388) of 6 µg/mL (≈ 7.03 µM), a Ratio [1] of 20 and a Ratio (Sus scrofa) of 10. The Ratio [2] was 46.
In the case of `CC(=O)O[C@@]12CO[C@@H]1C[C@H](O)[C@@]1(C)C(=O)[C@H](O)C3=C(C)[C@@H](OC(=O)C(O)C(NC(=O)c4ccc(S(=O)(=O)O)cc4)c4ccccc4)C[C@@](O)([C@@H](OC(=O)c4ccccc4)[C@H]21)C3(C)C` (stereo not given in full), the IC50 (P388) is reported as over 4 µg/mL, the Ratio [1] is reported as 11 and the Ratio (Sus scrofa) is reported as 5.5. It also gave a Ratio [2] of over 31.
`CC(=O)O[C@@]12CO[C@@H]1C[C@H](O)[C@@]1(C)C(=O)[C@H](O)C3=C(C)[C@@H](OC(=O)[C@H](O)[C@@H](NC(=O)OC(C)(C)C)c4ccccc4)C[C@@](O)([C@@H](OC(=O)c4ccccc4)[C@H]21)C3(C)C.O.O.O` [DOCETAXEL] showed an IC50 (P388) of 0.13 µg/mL, a Ratio [1] of 1 and a Ratio (Sus scrofa) of 0.5. The Ratio [2] was 1.
For `CC(=O)O[C@@]12CO[C@@H]1C[C@H](OC(=O)CN)[C@@]1(C)C(=O)[C@H](OC(=O)CN)C3=C(C)[C@@H](OC(=O)C(O)C(NC(=O)OC(C)(C)C)c4ccccc4)C[C@@](O)([C@@H](OC(=O)c4ccccc4)[C@H]21)C3(C)C` (stereo not given in full), the IC50 (P388) was 0.19 µg/mL (≈ 0.206 µM), the Ratio [1] was 1.4 and the Ratio (Sus scrofa) was 1.2. It also gave a Ratio [2] of 1.5.
`CC(=O)O[C@@]12CO[C@@H]1C[C@H](O)[C@@]1(C)C(=O)[C@H](O)C3=C(C)[C@@H](OC(=O)[C@H](O)[C@@H](NC(=O)c4ccccc4)c4ccccc4)C[C@@](O)([C@@H](OC(=O)c4ccccc4)[C@H]21)C3(C)C` showed a Ratio (Sus scrofa) of 1.3.
`CC(=O)O[C@@]12CO[C@@H]1C[C@H](O)[C@@]1(C)C(=O)[C@H](O)C3=C(C)[C@@H](OC(=O)C(NC(=O)c4ccccc4)C(O)c4ccccc4)C[C@@](O)([C@@H](OC(=O)c4ccccc4)[C@H]21)C3(C)C` (stereo in doubt; 14c) gave a Ratio (Sus scrofa) of 10.
